Earlier results on three molecules are cited in paper PMC4284021 (The Journal of Pharmacy and Pharmacology, 2014).

The structures appear in SMILES notation.

The test system of data set [1] is patients. The note with it: cited from earlier work.
For data set [2], the system named is CYP11B1 (steroid 11 β-hydroxylase) and CYP11B2 (aldosterone synthase). Particulars: branched DNA analysis; cited from earlier work.
Data set [3] deals with patients. The note with it: cited from earlier work. The source holds these as a separate data set.
The test system of the next data set is CETP. Particulars: cited from earlier work.
In data set [4] the test system is patients. The note with it: cited from earlier work. The source holds these as a separate data set.

For `CCOC(=O)N1c2ccc(C(F)(F)F)cc2[C@@H](N(Cc2cc(C(F)(F)F)cc(C(F)(F)F)c2)C(=O)OC)C[C@H]1CC` [torcetrapib], in the data set on patients [1], the “blood pressure and aldosterone levels” value is “increases in blood pressure and aldosterone levels”; the “mortality and CV events” value was “excess risk”. Also, the “expression of genes regulating CYP11B1 and CYP11B2” value in data set [2] is on record as “induced expression”.

For `COc1cc(F)c(C(C)C)cc1-c1ccc(C(F)(F)F)cc1CN1C(=O)O[C@H](c2cc(C(F)(F)F)cc(C(F)(F)F)c2)[C@@H]1C` [anacetrapib], the “plasma concentrations after cessation of treatment” value in the data set on patients [3] (12 weeks after cessation) is recorded as “significant plasma concentrations”. The “changes in blood pressure or electrolyte or aldosterone levels” value in the data set with patients [3] (through 76 weeks) is given as “no changes were noted”. Also, in the data set on CETP, the “time of peak CETP inhibition after dosing” value was 4 h.

`CCC(CC)CC1(C(=O)Nc2ccccc2SC(=O)C(C)C)CCCCC1` [dalcetrapib]: in the data set on patients [4], the “mean systolic blood pressure higher than in the placebo group” value is reported as “approximately 0.6 mmHg”.
